Reference: PubChem BioAssay AID1159588 (Gregory J. Crowther, 2016)

These molecules were tested against Calcium-dependent protein kinase 4 (Plasmodium falciparum (isolate 3D7)) (UniProt Q8IBS5) (assay: PfCDPK4 kinase inhibitors, biochemical, TCAMS library (AID 1159588)). Settings: recombinant PfCDPK4, Kinase-Glo ATP depletion luminescence.
Chain of Calcium-dependent protein kinase 4 (Plasmodium falciparum (isolate 3D7)) (Q8IBS5 whole entry, looked up): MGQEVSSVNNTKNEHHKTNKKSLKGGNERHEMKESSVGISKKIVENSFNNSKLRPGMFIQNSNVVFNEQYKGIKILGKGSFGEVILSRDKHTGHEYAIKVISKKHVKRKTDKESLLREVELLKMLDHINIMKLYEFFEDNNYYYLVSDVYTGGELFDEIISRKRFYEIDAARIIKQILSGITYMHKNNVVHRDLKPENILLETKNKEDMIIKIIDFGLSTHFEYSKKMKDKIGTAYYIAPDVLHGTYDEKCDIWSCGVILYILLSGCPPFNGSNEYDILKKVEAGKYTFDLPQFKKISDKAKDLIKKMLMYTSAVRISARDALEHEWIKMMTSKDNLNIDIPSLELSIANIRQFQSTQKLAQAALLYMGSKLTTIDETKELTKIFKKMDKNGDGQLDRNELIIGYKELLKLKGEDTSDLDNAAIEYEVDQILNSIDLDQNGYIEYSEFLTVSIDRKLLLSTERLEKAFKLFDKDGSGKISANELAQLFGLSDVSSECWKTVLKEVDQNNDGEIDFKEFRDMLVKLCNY

IC50	SMILES
201 nM	CCS(=O)(=O)c1ccc(OC)c(Nc2nccc(-c3c(-c4cccc(NC(=O)c5c(F)cccc5F)c4)nn4ncccc34)n2)c1
38 nM	CCn1c(-c2nonc2N)nc2c(-c3ccccc3)ncc(OCCCNCCCN3CCOCC3)c21
433 nM	CC(C)(CN)c1cc(-c2ccc(Cl)c(O)c2)c(-c2ccncc2)o1
563 nM	Cc1[nH]nc2ccc(-c3cc(OC[C@@H](N)Cc4ccccc4)cnc3-c3cc4ccccc4s3)cc12
853 nM	COCCOc1ccc(Nc2nccc(-c3c(-c4cccc(NC(=O)c5c(F)cccc5F)c4)nn4ccccc34)n2)cc1Cl
166 nM	Cc1cccc(Nc2nc(NCCCCN)nc3cc[nH]c(=O)c23)c1
178 nM	O=C(NCC(c1ccc(C(F)(F)F)cc1)N1CCCC1)c1cc(-c2ccncc2)c(-c2cccc(O)c2)o1 (stereo not given)
307 nM	O=C(Nc1cccc(-c2nn3ccccc3c2-c2ccnc(Nc3ccc(-c4ccn[nH]4)cc3)n2)c1)c1c(F)cccc1F
706 nM	CCn1c(-c2nonc2N)nc2c(-c3cccc(NC(=O)Nc4ccccc4OC)c3)ncc(OCCCN)c21
967 nM	NCCCNc1nc(Nc2cccc(C(N)=O)c2)c2c(=O)[nH]ccc2n1
89 nM	Cc1cc(Nc2ncc(C#N)c(Nc3ccccc3C(N)=O)n2)ccc1N1CCN(C)CC1
170 nM	CCn1c(-c2nonc2N)nc2c(-c3cccc(NC(=O)Nc4cccc(C#N)c4)c3)ncc(OCCCN)c21
138 nM	CCn1c(-c2nonc2N)nc2c(-c3cccc(NC(=O)Nc4ccccc4Cl)c3)ncc(OCCCN)c21
75 nM	CN1CCN(c2ccc(Nc3nccc(-c4c(-c5cccc(NC(=O)c6c(F)cccc6F)c5)nn5ccccc45)n3)cc2)CC1
478 nM	N#Cc1ccc(C(=O)Nc2cc(-c3cccc(O)c3)cc3[nH]ncc23)cc1
311 nM	O=C(Nc1cccc(-c2nn3ccccc3c2-c2ccnc(Nc3ccc(C(=O)N4CCOCC4)cc3)n2)c1)c1c(F)cccc1F
46 nM	CCn1c(-c2nonc2N)nc2c(-c3cccc(Cl)c3)ncc(OCCCNCCc3cnc[nH]3)c21
65 nM	CS(=O)(=O)Cc1ccc(Nc2nccc(-c3c(-c4cccc(C(=O)Nc5c(F)cccc5F)c4)nn4ccccc34)n2)cc1
76 nM	Cc1cccc(Nc2nc(N[C@@H]3CCCNC3)nc3cc[nH]c(=O)c23)c1
191 nM	Cn1cccc1C(=O)Nc1cccc(-c2nn3ccccc3c2-c2ccnc(Nc3ccc4c(c3)OCCO4)n2)c1
21 nM	Cc1[nH]c(/C=C2\C(=O)Nc3ccc(S(=O)(=O)Cc4c(Cl)cccc4Cl)cc32)c(C)c1C(=O)N1CCC[C@@H]1CN1CCCC1
45 nM	COc1cc(Nc2nccc(-c3c(-c4cccc(NC(=O)c5c(F)cccc5F)c4)nn4ncccc34)n2)cc(OC)c1OC
59 nM	CCn1c(-c2nonc2N)nc2c(-c3cccc(NC(=O)Nc4ccc5c(c4)CCC5)c3)ncc(OCCCN)c21
775 nM	O=C(Nc1ccccc1)Nc1cccc(-c2nn3c(OCCN4CCCC4)cccc3c2-c2ccncc2)c1
135 nM	NS(=O)(=O)c1cccc(Nc2nc(N[C@@H]3CCNC3)nc3cc[nH]c(=O)c23)c1
342 nM	CCn1c(-c2nonc2N)nc2c(-c3cccc(NC(=O)Nc4cccc(C(F)(F)F)c4)c3)ncc(OCCCN)c21
527 nM	NC[C@H](CC1CCCCC1)NC(=O)c1ccc(-c2ccnc3[nH]ccc23)s1
89 nM	CCn1c(-c2nonc2N)nc2c(-c3cc4ccccc4s3)ncc(C(=O)N3CCC(N)C3)c21 (stereo not given)

IC50	SMILES
420 nM	Cc1csc(-c2ncc(OC[C@@H](N)Cc3ccccc3)cc2-c2ccc3n[nH]c(C)c3c2)c1
51 nM	NS(=O)(=O)c1cccc(Nc2nccc(-c3c(-c4cccc(NC(=O)c5c(F)cccc5F)c4)nn4ccccc34)n2)c1
30 nM	CCn1c(-c2nonc2N)nc2c(-c3cccc(NC(=O)Nc4ccc(C(F)(F)F)cc4)c3)ncc(OCCCN)c21
26 nM	CC(=O)Nc1cccc(Nc2nccc(-c3c(-c4cccc(NC(=O)c5c(F)cccc5F)c4)nn4ncccc34)n2)c1
145 nM	CCn1c(-c2nonc2N)nc2c(-c3cccc(Cl)c3)ncc(OCCCNCc3cnc(C)nc3N)c21
116 nM	NS(=O)(=O)c1cccc(N=Cc2c(O)[nH]c3ccc(S(=O)(=O)Cc4c(Cl)cccc4Cl)cc23)c1
315 nM	O=C(Nc1cccc(-c2nn3ccccc3c2-c2ccnc(Nc3ccc(NCCCN4CCOCC4)c(F)c3)n2)c1)c1c(F)cccc1F
86 nM	CCN(CC)CCCOc1ccc(Nc2nccc(-c3c(-c4cccc(NC(=O)c5c(F)cccc5F)c4)nn4ccccc34)n2)cc1F
361 nM	CNC(=O)c1ccccc1Nc1nc(Nc2ccc(CCN3CCN(C)CC3)cc2)ncc1Cl
81 nM	CCn1c(-c2nonc2N)nc2c(-c3cccc(NC(=O)Nc4cccc(Cl)c4)c3)ncc(OCCCN)c21
158 nM	CCn1c(-c2nonc2N)nc2c(-c3cccc(NC(=O)NC45CC6CC(CC(C6)C4)C5)c3)ncc(OCCCN)c21
52 nM	CS(=O)(=O)Cc1ccc(Nc2nccc(-c3c(-c4cccc(NC(=O)c5c(F)cccc5F)c4)nn4ccccc34)n2)cc1
73 nM	CCN(CC)CCNC(=O)c1ccc(N=Cc2c(O)[nH]c3ccc(S(=O)(=O)Cc4c(Cl)cccc4Cl)cc23)cc1
24 nM	CC(c1cccc(Nc2nccc(-c3c(-c4cccc(NC(=O)c5c(F)cccc5F)c4)nn4ncccc34)n2)c1)S(C)(=O)=O (stereo not given)
188 nM	CN1CCN(c2ccc(Nc3ncc(C#N)c(Nc4ccccc4C(N)=O)n3)cc2)CC1
43 nM	CCn1c(-c2nonc2N)nc2c(-c3ccccc3)ncc(OCCCCNCCc3ncc[nH]3)c21
90 nM	CC(c1cccc(Nc2nccc(-c3c(-c4cccc(NC(=O)c5c(F)cccc5F)c4)nn4ccccc34)n2)c1)S(C)(=O)=O (stereo not given)
352 nM	O=C(Nc1cccc(-c2nn3ncccc3c2-c2ccnc(Nc3ccccc3)n2)c1)c1c(F)cccc1F
67 nM	CS(=O)(=O)Cc1ccc(Nc2nccc(-c3c(-c4cccc(NC(=O)C5CCCCC5)c4)nn4ncccc34)n2)cc1
145 nM	O=C(Nc1cccc(-c2nn3ncccc3c2-c2ccnc(Nc3cccc(-c4cnco4)c3)n2)c1)c1c(F)cccc1F
29 nM	NS(=O)(=O)CCc1cccc(Nc2nccc(-c3c(-c4cccc(NC(=O)c5c(F)cccc5F)c4)nn4ccccc34)n2)c1
77 nM	COc1cc(Nc2nccc(-c3c(-c4cccc(NC(=O)c5c(F)cccc5F)c4)nn4ccccc34)n2)cc(OC)c1OC
612 nM	O=C(Nc1cccc(-c2nn3ccccc3c2-c2ccnc(Nc3cccc(-c4cnco4)c3)n2)c1)C1CCCCC1
134 nM	O=C(Nc1c(F)cccc1F)c1cccc(-c2nn3ccccc3c2-c2ccnc(Nc3cccc(-c4cnco4)c3)n2)c1
473 nM	NCC(NC(=O)c1ccc(-c2c[nH]c3ncccc23)s1)c1ccccc1 (stereo not given)
84 nM	CCn1c(-c2nonc2N)nc2c(-c3cccc(NC(=O)Nc4ccc(C#N)cc4)c3)ncc(OCCCN)c21
446 nM	O=c1[nH]ccc2nc(N[C@@H]3CCNC3)nc(Nc3cc(Cl)cc(Cl)c3)c12
